We go through 1 molecule from patent US20260015364A1, “PIPERAZINE BRIDGE-SUBSTITUTED HETEROCYCLIC PYRIMIDINE COMPOUND” (MEDSHINE DISCOVERY INC., priority 2022, published 2026).

For data set [1], the system named is GP2D human colon cancer cells with KRAS^G12D mutation. As to the kind of experiment: GP2D 3D CTG experiment (anti-proliferation). The data set is classed as cell-based. The following applies: 120 h, 5 days incubation. An excerpt: This experiment aims to verify the inhibitory effect of the compounds of the present disclosure on the proliferation of GP2D human colon cancer cells with KRAS^G12D mutation.
Cell line GP2D and DMEM medium were purchased from GIBCO, FBS was purchased from Hyclone, and L-glutamine was purchased from Invitrogen. The 96-well plate was purchased from Ultra Low Cluster. CellTiter-Glo® 3D Cell Viability Assay reagents (chemiluminescent 3D cell viability assay reagents) were purchased from Promega, and 2104 En Vision plate reader was purchased from PerkinElmer.
GP2D cells were cultured in an incubator at 37° C. with 5% CO2 under the conditions of DMEM+10% FBS+2 mM L-glutamine. Regular passaging was performed, and cells in the logarithmic growth phase were selected for plating. GP2D cells were seeded in a 96-well U-bottom cell culture plate, and each well of 135 μL cell suspension contained 6000 GP2D cells. The culture plate was cultured overnight in a 37° C., 5% CO2 incubator with 100% relative humidity. The test compound was diluted 5-fold to the eighth concentration using a pipette, ranging from 200 μM to 2.56 nM, and tested in duplicate. 78 μL of culture medium per well was added to an intermediate plate. […] A multimode microplate reader was used for reading. […]

Data set [2] is described as follows: In vivo pharmacokinetic experiment in CD-1 mice. On the procedure:
This experiment aims to investigate the pharmacokinetic properties of the compounds of the present disclosure administrated by oral and intravenous injection in CD-1 mice.
The test compound was mixed with 10% dimethyl sulfoxide+90% (10% hydroxypropyl-β-cyclodextrin (HP-β-CD) aqueous solution), vortexed, and sonicated to prepare 0.6, 3.0, and 10.0 mg/mL clear solutions, respectively. Male CD-1 mice aged 7 to 10 weeks were selected and intravenously injected (i.v.) with a solution of the candidate compound at a dose of 3 mg/kg (administration concentration of 0.6 mg/mL). The solution of the candidate compound was administered orally (p.o.) at a dose of 30 mg/kg (administration concentration of 3.0 mg/mL) or 100 mg/kg (administration concentration of 10.0 mg/mL). Whole blood was collected for a certain period of time and prepared into plasma. The drug concentration was analyzed by the LC-MS/MS method, and the pharmacokinetic parameters were calculated using Phoenix WinNonlin software (Pharsight, USA).

Data set [3] has as its system PANC04.03 cell subcutaneously transplanted tumors. As to the kind of experiment: In vivo pharmacodynamic experiment of PANC04.03 tumor model. Details: species or system Balb/c Nude mice. To be noted: p.o., BID, 28 days of administration. On the procedure:
In vivo pharmacodynamics of PANC04.03 cell subcutaneously transplanted tumors in Balb/c Nude mice model with human pancreatic cancer
Cell culture: Human pancreatic cancer PANC04.03 cells were cultured in monolayer in vitro. The culture conditions were RPMI-1640+15% FBS+10 units/mL insulin, and cultured in a 37° C., 5% carbon dioxide incubator. Routine digestion with trypsin-EDTA was performed twice a week for passaging. When the cell saturation reached 80% to 90% and the required quantity was reached, the cells were harvested, counted, and resuspended in an appropriate amount of PBS to obtain a cell suspension with a cell density of 25×10^6 cells/mL.
Cell inoculation: 0.2 mL (5×10^6 cells/mouse) of PANC04.03 cells were subcutaneously inoculated into the right back of each mouse.
Experimental operation: When the average tumor volume reached 190 mm^3, the mice were randomly divided into groups according to the tumor volume, with 6 animals in each group. The blank group was administered with a dose of 0, and the test group was orally administered with a dose of 30 mg/kg, 100 mg/kg, 150 mg/kg, and a volume of 10 μL/g, respectively, and was administered twice a day for 28 days.
Tumor diameters were measured twice a week with a vernier caliper. The formula for calculating tumor volume is: V=0.5a×b^2, wherein a and b represent the long and short diameters of the tumor, respectively.
The tumor inhibitory efficacy of the compound was evaluated by TGI (%) or relative tumor proliferation rate T/C (%). Relative tumor proliferation rate T/C (%)=TRTV/CRTV×100% (TRTV:RTV of treatment group; CRTV:RTV of negative control group). The relative tumor volume (RTV) was calculated based on the results of tumor measurements. The calculation formula is RTV=Vt/V0, where V0 is the average tumor volume measured at the beginning of administration in groups (i.e., D0), and Vt is the average tumor volume measured at a certain measurement. TRTV and CRTV used the data from the same day.
TGI (%) reflected the tumor growth inhibition rate. […]

Setting [4] is: male, mouse, iv, 3 mg/kg, i.v. 3 mpk, plasma.
Setting [5] is: male, mouse, po, 30 mg/kg, p.o. 30 mpk, plasma.
Where [6] appears, read: male, mouse, po, 100 mg/kg, p.o. 100 mpk, plasma.

In data set [1], `C#Cc1c(F)ccc2cc(N)cc(-c3ncc4c(N5CC6CCC(C5)N6)nc(OC[C@@]56CC(=C)CN5C[C@@H]5C[C@@H]56)nc4c3F)c12` (single isomer, unassigned) [Compound 3] gave an IC50 of 0.54 nM. For the same molecule, in data set [2] (setting [4]), the AUC(0-inf) is 1.66 µM·h, the AUC(0-t) was found to be 1.56 µM·h, the Vd was found to be 41.1 L/kg and the clearance was determined as 50.8 mL/min/kg. The molecule also gave a half-life in data set [2] (setting [4]) of 9.3 h. For the same molecule, in data set [2] (setting [5]), the AUC(0-inf) stood at 1.18 µM·h, the AUC(0-t) worked out at 1.15 µM·h, the concentration peaked (Cmax) at 439 nM and the Tmax is 0.583 h. Also, the half-life in data set [2] (setting [5]) was 5.41 h. In data set [2] (setting [6]), the AUC(0-inf) is 13.3 µM·h, the AUC(0-t) was 13.1 µM·h, the peak concentration (Cmax) amounted to 3110 nM and the time of peak concentration (Tmax) was determined as 1.25 h. Besides, the half-life in data set [2] (setting [6]) is 4.24 h. Moreover, the F in data set [2] (p.o. 100 mpk) was found to be 24.0%. The TGI in data set [3] (30 mpk) is listed as 95.41%. The TGI in data set [3] (100 mpk) amounted to 108.41%. Also, the TGI in data set [3] (150 mpk) is 115.80%.
